Measurements published in patent US8841483B2, “Compositions useful as inhibitors of voltage-gated sodium channels” (Vertex Pharmaceuticals Incorporated, priority 2006, dated 2014).
Where two headings read alike, the source gives them in different places.

Key:
[1] = target: T1, NaV1.8 (Homo sapiens, UniProt Q9Y5Y9); details: read-out: TTX IC50; cited from earlier work
[2] = target: NaV1.1 (Homo sapiens, UniProt P35498); details: read-out: TTX IC50; cited from earlier work
[3] = target: NaV1.9 (Homo sapiens, UniProt Q9UI33); details: read-out: TTX IC50; cited from earlier work
[4] = target: NaV1.2 (Homo sapiens, UniProt Q99250); details: read-out: TTX IC50; cited from earlier work
[5] = target: NaV1.3 (Homo sapiens, UniProt Q9NY46); details: read-out: TTX IC50; cited from earlier work
[6] = target: NaV1.6 (Homo sapiens, UniProt Q9UQD0); details: read-out: TTX IC50; cited from earlier work
[7] = target: T1, NaV1.8; experiment: Activity against NaV 1.8 channel (Table 3), optical membrane potential / electrophysiology assays; format: cell-based
Protocol: Compounds of the invention are useful as antagonists of voltage-gated sodium ion channels. Antagonist properties of test compounds were assessed as follows. Cells expressing the NaV of interest were placed into microtiter plates. After an incubation period, the cells were stained with fluorescent dyes sensitive to the transmembrane potential. The test compounds were added to the microtiter plate. The cells were stimulated with either a chemical or electrical means ti evoke a NaV dependent membrane potential change from unblocked channels, which was detected and measured with trans-membrane potential-sensitive dyes. Antagonists were detected as a decreased membrane potential response to the stimulus. The optical membrane potential assay utilized voltage-sensitive FRET sensors described by Gonzalez and Tsien (See, Gonzalez, J. E. and R. Y. Tsien (1995) “Voltage sensing by fluorescence resonance energy transfer in single cells” Biophys J 69(4): 1272-80, and Gonzalez, J. E. and R. Y. Tsien (1997) “Improved indicators of cell membrane potential that use fluorescence resonance energy transfer” Chem Biol 4(4): 269-77) in combination with instrumentation for measuring fluorescence changes such as the Voltage/Ion Probe Reader (VIPR®) (See, Gonzalez, J. E., K. Oades, et al. (1999) “Cell-based assays and instrumentation for screening ion-channel targets” Drug Discov Today 4(9): 431-439).
The following is an example of how NaV1.3 inhibition activity is measured using the optical membrane potential method #2. Other subtypes are performed in an analogous mode in a cell line expressing the NaV of interest.
HEK293 cells stably expressing NaV1.3 are plated into 96-well microtiter plates. After an appropriate incubation period, the cells are stained with the voltage sensitive dyes CC2-DMPE/DiSBAC2(3) as follows.
2X CC2-DMPE=20 μM CC2-DMPE: 10 mM CC2-DMPE is vortexed with an equivalent volume of 10% pluronic, followed by vortexing in required amount of HBSS containing 10 mM HEPES. Each cell plate will require 5 mL of 2X CC2-DMPE. 50 μL of 2X CC2-DMPE is to wells containing washed cells, resulting in a 10 μM final staining concentration. The cells are stained for 30 minutes in the dark at RT.
2X DISBAC2(3) with ABSC1=6 μM DISBAC2(3) and 1 mM ABSC1: The required amount of 10 mM DISBAC2(3) is added to a 50 ml conical tube and mixed with 1 μL 10% pluronic for each mL of solution to be made and vortexed together. Then HBSS/HEPES is added to make up 2X solution. Finally, the ABSC1 is added.
The 2X DiSBAC2(3) solution can be used to solvate compound plates. Note that compound plates are made at 2X drug concentration. Wash stained plate again, leaving residual volume of 50 μL. Add 50 uL/well of the 2X DiSBAC2(3) w/ABSC1. Stain for 30 minutes in the dark at RT.
The electrical stimulation instrument and methods of use are described in ION Channel Assay Methods PCT/US01/21652, herein incorporated by reference. The instrument comprises a microtiter plate handler, an optical system for exciting the coumarin dye while simultaneously recording the coumarin and oxonol emissions, a waveform generator, a current- or voltage-controlled amplifier, and a device for inserting electrodes in well. Under integrated computer control, this instrument passes user-programmed electrical stimulus protocols to cells within the wells of the microtiter plate.
Assay Protocol • 1. Insert or use electrodes into each well to be assayed. • 2. Use the current-controlled amplifier to deliver stimulation wave pulses for 3 s. Two seconds of pre-stimulus recording are performed to obtain the un-stimulated intensities. Five seconds of post-stimulation recording are performed to examine the relaxation to the resting state.
Data are analyzed and reported as normalized ratios of background-subtracted emission intensities measured in the 460 nm and 580 nm channels. Background intensities are then subtracted from each assay channel. […]

Sequence of NaV1.2 (Q99250 whole entry, looked up): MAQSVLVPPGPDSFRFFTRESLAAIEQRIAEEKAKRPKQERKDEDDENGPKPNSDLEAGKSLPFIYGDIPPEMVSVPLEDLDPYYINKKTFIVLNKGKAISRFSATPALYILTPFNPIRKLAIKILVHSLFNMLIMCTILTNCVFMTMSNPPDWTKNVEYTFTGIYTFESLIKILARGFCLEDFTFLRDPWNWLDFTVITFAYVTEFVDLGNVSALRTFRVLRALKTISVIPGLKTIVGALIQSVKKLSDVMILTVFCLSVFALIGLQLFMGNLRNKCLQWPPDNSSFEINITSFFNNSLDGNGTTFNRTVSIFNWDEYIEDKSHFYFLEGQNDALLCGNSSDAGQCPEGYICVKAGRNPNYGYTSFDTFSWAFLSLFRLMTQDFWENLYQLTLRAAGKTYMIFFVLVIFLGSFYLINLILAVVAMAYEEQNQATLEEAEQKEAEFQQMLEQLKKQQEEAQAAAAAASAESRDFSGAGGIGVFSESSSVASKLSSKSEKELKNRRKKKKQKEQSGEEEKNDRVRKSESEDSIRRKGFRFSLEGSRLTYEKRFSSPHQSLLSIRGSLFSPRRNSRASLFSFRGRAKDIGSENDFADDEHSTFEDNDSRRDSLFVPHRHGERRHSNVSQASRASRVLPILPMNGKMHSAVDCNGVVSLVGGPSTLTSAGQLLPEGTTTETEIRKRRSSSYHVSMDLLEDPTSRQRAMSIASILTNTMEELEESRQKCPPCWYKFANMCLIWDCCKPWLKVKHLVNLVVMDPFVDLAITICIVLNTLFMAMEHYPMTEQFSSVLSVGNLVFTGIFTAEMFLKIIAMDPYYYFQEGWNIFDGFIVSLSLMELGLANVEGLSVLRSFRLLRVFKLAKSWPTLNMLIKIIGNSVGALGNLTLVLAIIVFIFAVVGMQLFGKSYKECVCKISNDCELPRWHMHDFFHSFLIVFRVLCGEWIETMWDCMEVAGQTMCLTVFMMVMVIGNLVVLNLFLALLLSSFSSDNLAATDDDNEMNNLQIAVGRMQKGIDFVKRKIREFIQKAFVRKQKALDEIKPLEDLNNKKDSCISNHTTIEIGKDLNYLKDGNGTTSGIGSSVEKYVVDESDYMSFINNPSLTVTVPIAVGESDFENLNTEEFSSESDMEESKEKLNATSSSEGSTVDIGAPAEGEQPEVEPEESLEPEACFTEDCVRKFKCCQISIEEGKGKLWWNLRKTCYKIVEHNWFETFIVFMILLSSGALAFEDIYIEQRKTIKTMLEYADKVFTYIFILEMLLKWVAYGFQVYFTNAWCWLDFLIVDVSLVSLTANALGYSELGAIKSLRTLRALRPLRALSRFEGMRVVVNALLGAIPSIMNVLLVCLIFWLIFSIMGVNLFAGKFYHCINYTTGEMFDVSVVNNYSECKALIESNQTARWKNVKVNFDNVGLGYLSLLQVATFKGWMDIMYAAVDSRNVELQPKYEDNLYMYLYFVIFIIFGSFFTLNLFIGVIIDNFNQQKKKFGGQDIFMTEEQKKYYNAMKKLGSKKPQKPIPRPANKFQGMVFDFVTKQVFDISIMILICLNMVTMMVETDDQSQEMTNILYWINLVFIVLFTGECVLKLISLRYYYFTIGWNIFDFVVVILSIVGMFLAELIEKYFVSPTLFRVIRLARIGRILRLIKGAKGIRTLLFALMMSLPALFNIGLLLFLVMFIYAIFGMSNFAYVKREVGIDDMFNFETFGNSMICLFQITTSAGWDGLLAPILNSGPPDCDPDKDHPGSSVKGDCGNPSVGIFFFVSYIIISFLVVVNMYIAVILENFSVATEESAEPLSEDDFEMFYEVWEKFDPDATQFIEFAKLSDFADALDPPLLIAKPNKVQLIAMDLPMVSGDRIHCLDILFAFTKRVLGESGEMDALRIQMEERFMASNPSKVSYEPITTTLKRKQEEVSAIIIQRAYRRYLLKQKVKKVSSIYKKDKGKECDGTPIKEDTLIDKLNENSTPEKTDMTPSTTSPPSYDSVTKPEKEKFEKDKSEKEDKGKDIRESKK
Sequence of NaV1.6 (Q9UQD0 whole entry, looked up): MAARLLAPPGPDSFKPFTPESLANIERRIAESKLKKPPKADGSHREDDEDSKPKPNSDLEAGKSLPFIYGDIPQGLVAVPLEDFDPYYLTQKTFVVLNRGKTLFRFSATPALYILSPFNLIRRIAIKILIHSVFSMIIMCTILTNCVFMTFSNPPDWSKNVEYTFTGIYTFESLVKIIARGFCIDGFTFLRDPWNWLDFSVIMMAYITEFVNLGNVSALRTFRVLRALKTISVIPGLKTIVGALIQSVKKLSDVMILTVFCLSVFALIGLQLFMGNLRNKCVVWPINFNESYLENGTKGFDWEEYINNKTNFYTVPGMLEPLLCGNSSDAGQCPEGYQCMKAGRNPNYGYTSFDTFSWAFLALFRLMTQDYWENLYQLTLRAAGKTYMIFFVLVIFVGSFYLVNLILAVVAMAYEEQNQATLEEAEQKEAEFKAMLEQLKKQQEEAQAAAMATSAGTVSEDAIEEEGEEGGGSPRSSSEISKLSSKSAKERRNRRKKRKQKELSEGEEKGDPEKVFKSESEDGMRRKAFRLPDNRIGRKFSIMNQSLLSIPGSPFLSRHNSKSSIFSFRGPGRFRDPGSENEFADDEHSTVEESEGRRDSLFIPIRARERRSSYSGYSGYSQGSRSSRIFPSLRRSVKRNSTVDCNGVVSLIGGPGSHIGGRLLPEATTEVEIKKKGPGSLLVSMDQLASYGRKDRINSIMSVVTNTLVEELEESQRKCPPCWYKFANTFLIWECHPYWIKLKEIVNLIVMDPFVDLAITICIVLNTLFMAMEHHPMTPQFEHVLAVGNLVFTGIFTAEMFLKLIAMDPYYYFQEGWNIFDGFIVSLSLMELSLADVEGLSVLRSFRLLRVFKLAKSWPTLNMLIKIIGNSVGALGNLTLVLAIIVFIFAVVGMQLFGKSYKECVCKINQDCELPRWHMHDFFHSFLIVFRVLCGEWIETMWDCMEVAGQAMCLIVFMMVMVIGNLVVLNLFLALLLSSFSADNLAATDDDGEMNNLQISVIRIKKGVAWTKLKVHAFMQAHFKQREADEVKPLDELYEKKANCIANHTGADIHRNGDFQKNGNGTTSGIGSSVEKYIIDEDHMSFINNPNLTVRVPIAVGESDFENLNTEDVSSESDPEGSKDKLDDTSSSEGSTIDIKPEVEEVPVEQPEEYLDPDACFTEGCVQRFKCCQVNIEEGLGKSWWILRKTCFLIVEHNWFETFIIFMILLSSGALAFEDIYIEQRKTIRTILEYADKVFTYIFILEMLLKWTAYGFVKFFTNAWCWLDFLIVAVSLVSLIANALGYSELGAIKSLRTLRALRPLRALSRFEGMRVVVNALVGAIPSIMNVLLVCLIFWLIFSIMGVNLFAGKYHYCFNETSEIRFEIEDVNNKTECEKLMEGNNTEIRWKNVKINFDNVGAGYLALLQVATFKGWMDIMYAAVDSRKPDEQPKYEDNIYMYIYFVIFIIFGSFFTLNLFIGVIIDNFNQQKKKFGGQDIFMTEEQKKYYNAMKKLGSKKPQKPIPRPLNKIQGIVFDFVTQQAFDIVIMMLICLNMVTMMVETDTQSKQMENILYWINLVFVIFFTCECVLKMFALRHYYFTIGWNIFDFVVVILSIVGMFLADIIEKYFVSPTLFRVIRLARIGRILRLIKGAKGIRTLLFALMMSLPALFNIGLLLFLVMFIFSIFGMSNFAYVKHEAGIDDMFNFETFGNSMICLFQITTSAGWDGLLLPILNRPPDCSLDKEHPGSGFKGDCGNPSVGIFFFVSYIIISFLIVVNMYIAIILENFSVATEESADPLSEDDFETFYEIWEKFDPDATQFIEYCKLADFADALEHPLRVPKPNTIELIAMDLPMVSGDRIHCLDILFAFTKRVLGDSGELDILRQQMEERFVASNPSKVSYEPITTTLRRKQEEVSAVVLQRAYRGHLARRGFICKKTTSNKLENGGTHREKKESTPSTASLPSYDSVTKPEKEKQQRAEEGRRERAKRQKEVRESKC

Row | SMILES | IC50 [7] [nM] | further results
1 | NC1=N[C@H](O)[C@H]2[C@H]3O[C@]4(O)O[C@@H]([C@@H](O)[C@@]2(N1)[C@@H]4O)[C@]3(O)CO [TTX, tetrodotoxin] | – | IC50 [1]: > 50000 nM; IC50 [2]: 10 nM; IC50 [3]: 1000 nM; IC50 [4]: 10 nM; IC50 [5]: 15 nM; IC50 [6]: 6 nM
2 | CC(=O)c1ccc(Oc2cc(C(C)(C)C)ccc2C(=O)Nc2cccc(S(N)(=O)=O)c2)cc1 [Compound 128] | < 2000 | –
3 | NS(=O)(=O)c1cccc(NC(=O)c2ccccc2N2CCOCC2)c1 [Compound 92] | > 10000 | –
4 | CN(C)S(=O)(=O)c1cccc(NC(=O)c2ccc(C(C)(C)C)cc2Oc2ccc(F)cc2Cl)c1 [Compound 121] | < 2000 | –
5 | NS(=O)(=O)c1cccc(NC(=O)c2ccccc2OCc2ccccc2)c1 [Compound 51] | > 10000 | –
6 | NS(=O)(=O)c1cccc(NC(=O)c2cccc(Oc3ccccc3)c2)c1 [Compound 15] | 2000 to 10000 | –
7 | NS(=O)(=O)c1cccc(NC(=O)c2ccc(Cl)c(Cl)c2)c1 [Compound 3] | > 10000 | –
8 | NS(=O)(=O)c1cccc(NC(=O)c2ccccc2OC(F)(F)F)c1 [Compound 30] | > 10000 | –
9 | COc1ccc(C(=O)Nc2cccc(S(N)(=O)=O)c2)c(C(F)(F)F)c1 [Compound 133] | > 10000 | –
10 | CC(C)COC(=O)NC1CCN(c2ccccc2C(=O)Nc2cccc(S(N)(=O)=O)c2)CC1 [Compound 76] | > 10000 | –
11 | CC(C)(C)c1ccc(C(=O)Nc2cccc(S(N)(=O)=O)c2)c(Oc2ccc(C#N)cc2Cl)c1 [Compound 143] | < 2000 | –
12 | CC(C)(C)c1ccc(C(=O)Nc2cccc(S(N)(=O)=O)c2)c(Oc2cccnc2)c1 [Compound 61] | < 2000 | –
13 | CC(=O)Nc1ccc(C(=O)Nc2cccc(S(N)(=O)=O)c2)cc1 [Compound 54] | > 10000 | –
14 | CCc1ccc(C(=O)Nc2cccc(S(N)(=O)=O)c2)cc1 [Compound 28] | > 10000 | –
15 | NS(=O)(=O)c1cccc(NC(=O)c2ccc(-c3ncc[nH]3)cc2)c1 [Compound 19] | > 10000 | –
16 | COC(=O)c1ccc(Oc2cc(C(C)(C)C)ccc2C(=O)Nc2cccc(S(N)(=O)=O)c2)cc1 [Compound 125] | < 2000 | –
17 | CC(C)c1ccc(C(=O)Nc2cccc(S(N)(=O)=O)c2)cc1 [Compound 10] | 2000 to 10000 | –
18 | Cc1ccc(Oc2cc(C(C)(C)C)ccc2C(=O)Nc2cccc(S(N)(=O)=O)c2)c(C)n1 [Compound 99] | < 2000 | –
19 | Cc1cc(F)ccc1Oc1cc(C(C)(C)C)ccc1C(=O)Nc1cccc(S(N)(=O)=O)c1 [Compound 108] | < 2000 | –
20 | CC(C)(C)c1ccc(C(=O)Nc2cccc(S(N)(=O)=O)c2)c(Oc2ccc(C(F)(F)F)cc2Cl)c1 [Compound 116] | 2000 to 10000 | –
